Source: ChEMBL document CHEMBL1909294, “Translating clinical findings into knowledge in drug safety evaluation--drug induced liver injury prediction system (DILIps)” (PLoS Comput Biol, 2011)

Key:
Hepatotoxicity [1] = tested on: Hepatotoxicity;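 on HepSE bilirubinemia: bilirubinemia hepatic side effect score drawn from the DILIps training data, a prediction system for drug-induced liver injury; call rule not given here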;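 on HepSE cholecystitis: Cholecystitis-related hepatic side effect score drawn from the DILIps (drug-induced liver injury prediction) training data set; call rule not given here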;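 on HepSE cholelithiasis: hepatic side effect score for cholelithiasis, drawn from the DILIps training data for predicting drug-induced liver injury; call rule not given here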;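 on HepSE cirrhosis: cirrhosis hepatic side effect score taken from the DILIps (drug-induced liver injury prediction) training set; call rule not given here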;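 on HepSE elevated liver function tests: hepatic side effect score for raised liver function tests, as recorded in the DILIps training set used for predicting drug-induced liver injury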; on HepSE hepatic failure: call rule not given here;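 on HepSE hepatomegaly: hepatic side effect score for hepatomegaly, taken from the training set of the DILIps drug-induced liver injury prediction system; call rule not given here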
Hepatotoxicity [2] = tested on: Hepatotoxicity; remark: listed apart in the source;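 on HepSE bilirubinemia: bilirubinemia hepatic side effect score drawn from the DILIps training data, a prediction system for drug-induced liver injury; call rule not given here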;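 on HepSE cholecystitis: Cholecystitis-related hepatic side effect score drawn from the DILIps (drug-induced liver injury prediction) training data set; call rule not given here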;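 on HepSE cholelithiasis: hepatic side effect score for cholelithiasis, drawn from the DILIps training data for predicting drug-induced liver injury; call rule not given here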;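 on HepSE cirrhosis: cirrhosis hepatic side effect score taken from the DILIps (drug-induced liver injury prediction) training set; call rule not given here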;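 on HepSE elevated liver function tests: hepatic side effect score for raised liver function tests, as recorded in the DILIps training set used for predicting drug-induced liver injury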; on HepSE hepatic failure: call rule not given here;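 on HepSE hepatomegaly: hepatic side effect score for hepatomegaly, taken from the training set of the DILIps drug-induced liver injury prediction system; call rule not given here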
Hepatotoxicity [3] = tested on: Hepatotoxicity; remark: listed apart in the source;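 on HepSE bilirubinemia: bilirubinemia hepatic side effect score drawn from the DILIps training data, a prediction system for drug-induced liver injury; call rule not given here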;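 on HepSE cholecystitis: Cholecystitis-related hepatic side effect score drawn from the DILIps (drug-induced liver injury prediction) training data set; call rule not given here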;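 on HepSE cholelithiasis: hepatic side effect score for cholelithiasis, drawn from the DILIps training data for predicting drug-induced liver injury; call rule not given here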;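 on HepSE cirrhosis: cirrhosis hepatic side effect score taken from the DILIps (drug-induced liver injury prediction) training set; call rule not given here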;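 on HepSE elevated liver function tests: hepatic side effect score for raised liver function tests, as recorded in the DILIps training set used for predicting drug-induced liver injury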; on HepSE hepatic failure: call rule not given here
Hepatotoxicity [4] = tested on: Hepatotoxicity; remark: listed apart in the source;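 on HepSE bilirubinemia: bilirubinemia hepatic side effect score drawn from the DILIps training data, a prediction system for drug-induced liver injury; call rule not given here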;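 on HepSE cholecystitis: Cholecystitis-related hepatic side effect score drawn from the DILIps (drug-induced liver injury prediction) training data set; call rule not given here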;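 on HepSE cholelithiasis: hepatic side effect score for cholelithiasis, drawn from the DILIps training data for predicting drug-induced liver injury; call rule not given here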;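 on HepSE cirrhosis: cirrhosis hepatic side effect score taken from the DILIps (drug-induced liver injury prediction) training set; call rule not given here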;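 on HepSE elevated liver function tests: hepatic side effect score for raised liver function tests, as recorded in the DILIps training set used for predicting drug-induced liver injury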; on HepSE hepatic failure: call rule not given here
Hepatotoxicity [5] = tested on: Hepatotoxicity; remark: listed apart in the source; on HepSE hepatic failure: call rule not given here
Hepatotoxicity [6] = tested on: Hepatotoxicity; remark: listed apart in the source; on HepSE hepatic failure: call rule not given here
Hepatotoxicity [7] = tested on: Hepatotoxicity; remark: listed apart in the source
Hepatotoxicity [8] = tested on: Hepatotoxicity; remark: listed apart in the source
Hepatotoxicity [9] = tested on: Hepatotoxicity; remark: listed apart in the source
Hepatotoxicity [10] = tested on: Hepatotoxicity; remark: listed apart in the source
Hepatotoxicity [11] = tested on: Hepatotoxicity; remark: listed apart in the source
Hepatotoxicity [12] = tested on: Hepatotoxicity; remark: listed apart in the source
Hepatotoxicity [13] = tested on: Hepatotoxicity; remark: listed apart in the source
Hepatotoxicity [14] = tested on: Hepatotoxicity; remark: listed apart in the source

Row | Structure (SMILES) | HepSE_bilirubinemia (Hepatotoxicity [1]) | HepSE_cholecystitis (Hepatotoxicity [2]) | HepSE_cholelithiasis (Hepatotoxicity [3]) | HepSE_cirrhosis (Hepatotoxicity [4]) | HepSE_elevated liver function tests (Hepatotoxicity [5]) | HepSE_hepatic failure (Hepatotoxicity [6]) | HepSE_hepatic necrosis (Hepatotoxicity [7]) | HepSE_hepatitis (Hepatotoxicity [8]) | HepSE_hepatomegaly (Hepatotoxicity [9]) | HepSE_jaundice (Hepatotoxicity [10]) | HepSE_liver disease (Hepatotoxicity [11]) | HepSE_liver fatty (Hepatotoxicity [12]) | HepSE_liver function tests abnormal (Hepatotoxicity [13]) | HepSE_Combined Scores (Hepatotoxicity [14]) | also measured
1 | CC1=C(C(=O)O)N2C(=O)[C@@H](NC(=O)[C@H](N)c3ccc(O)cc3)[C@H]2SC1 [CEFADROXIL] | 0 | 0 | 0 | 0 | 0 | 1 | 0 | 0 | 0 | 0 | 0 | 0 | 0 | 1 | –
2 | Cc1nnc(SCC2=C(C(=O)O)N3C(=O)[C@@H](NC(=O)Cn4cnnn4)[C@H]3SC2)s1 [CEFAZOLIN] | 0 | 0 | 0 | 0 | 0 | 0 | 0 | 1 | 0 | 0 | 0 | 0 | 0 | 1 | –
3 | CO/N=C(\C(=O)N[C@@H]1C(=O)N2C(C(=O)OCOC(=O)C(C)(C)C)=C(/C=C\c3scnc3C)CS[C@H]12)c1csc(N)n1 [CEFDITOREN PIVOXIL] | 0 | 0 | 0 | 0 | 0 | 0 | 0 | 0 | 0 | 0 | 0 | 0 | 1 | 1 | –
4 | C=CC1=C(C(=O)O)N2C(=O)[C@@H](NC(=O)/C(=N\OCC(=O)O)c3csc(N)n3)[C@H]2SC1 [CEFIXIME] | 1 | 0 | 0 | 0 | 0 | 0 | 0 | 1 | 0 | 1 | 0 | 0 | 0 | 3 | –
5 | CCN1CCN(C(=O)N[C@@H](C(=O)N[C@@H]2C(=O)N3C(C(=O)O)=C(CSc4nnnn4C)CS[C@H]23)c2ccc(O)cc2)C(=O)C1=O [CEFOPERAZONE] | 0 | 0 | 0 | 0 | 0 | 0 | 0 | 1 | 0 | 0 | 1 | 0 | 0 | 2 | –
6 | CO/N=C(\C(=O)N[C@@H]1C(=O)N2C(C(=O)O)=C(COC(C)=O)CS[C@H]12)c1csc(N)n1 [CEFOTAXIME] | 0 | 0 | 0 | 0 | 0 | 0 | 0 | 1 | 0 | 1 | 0 | 0 | 0 | 2 | –
7 | CO[C@@]1(NC(=O)C2SC(=C(C(N)=O)C(=O)O)S2)C(=O)N2C(C(=O)O)=C(CSc3nnnn3C)CS[C@@H]21 (some centres undefined) [CEFOTETAN] | 0 | 0 | 0 | 0 | 0 | 0 | 0 | 0 | 0 | 0 | 0 | 0 | 0 | 0 | –
8 | CO[C@@]1(NC(=O)Cc2cccs2)C(=O)N2C(C(=O)O)=C(COC(N)=O)CS[C@@H]21 [CEFOXITIN] | 0 | 0 | 0 | 0 | 0 | 0 | 0 | 0 | 0 | 1 | 0 | 0 | 0 | 1 | –
9 | COCC1=C(C(=O)O)N2C(=O)[C@@H](NC(=O)/C(=N\OC)c3csc(N)n3)[C@H]2SC1 [CEFPODOXIME] | 0 | 0 | 0 | 0 | 0 | 0 | 0 | 0 | 0 | 0 | 0 | 0 | 0 | 0 | –
10 | CC=CC1=C(C(=O)O)N2C(=O)[C@@H](NC(=O)[C@H](N)c3ccc(O)cc3)[C@H]2SC1 [CEFPROZIL] | 0 | 0 | 0 | 0 | 0 | 0 | 0 | 0 | 0 | 1 | 0 | 0 | 0 | 1 | –
11 | CC(C)(O/N=C(\C(=O)N[C@@H]1C(=O)N2C(C(=O)[O-])=C(C[n+]3ccccc3)CS[C@H]12)c1csc(N)n1)C(=O)O [CEFTAZIDIME] | 1 | 0 | 0 | 0 | 0 | 0 | 0 | 0 | 0 | 1 | 0 | 0 | 0 | 2 | –
12 | Nc1nc(/C(=C/CC(=O)O)C(=O)N[C@@H]2C(=O)N3C(C(=O)O)=CCS[C@H]23)cs1 [CEFTIBUTEN] | 0 | 0 | 0 | 0 | 0 | 0 | 0 | 0 | 0 | 1 | 0 | 0 | 0 | 1 | –
13 | CO/N=C(\C(=O)N[C@@H]1C(=O)N2C(C(=O)O)=CCS[C@H]12)c1csc(N)n1 [CEFTIZOXIME] | 0 | 0 | 0 | 0 | 0 | 0 | 0 | 0 | 0 | 0 | 0 | 0 | 0 | 0 | –
14 | CO/N=C(\C(=O)N[C@@H]1C(=O)N2C(C(=O)O)=C(CSc3nc(=O)c(=O)[nH]n3C)CS[C@H]12)c1csc(N)n1 [CEFTRIAXONE] | 0 | 0 | 0 | 0 | 0 | 0 | 0 | 0 | 0 | 0 | 0 | 0 | 0 | 0 | –
15 | CO/N=C(\C(=O)N[C@@H]1C(=O)N2C(C(=O)O)=C(COC(N)=O)CS[C@H]12)c1ccco1 [CEFUROXIME] | 0 | 0 | 0 | 0 | 0 | 0 | 0 | 1 | 0 | 1 | 0 | 0 | 0 | 2 | –
16 | Cc1ccc(-c2cc(C(F)(F)F)nn2-c2ccc(S(N)(=O)=O)cc2)cc1 [CELECOXIB] | – | – | – | – | – | – | – | – | – | – | – | – | – | – | HepSE_bilirubinemia (Hepatotoxicity [1]; Liver): 0; HepSE_cholecystitis (Hepatotoxicity [2]; Liver): 0; HepSE_cholelithiasis (Hepatotoxicity [3]; Liver): 1; HepSE_cirrhosis (Hepatotoxicity [4]; Liver): 0; HepSE_elevated liver function tests (Hepatotoxicity [5]; Liver): 0; HepSE_hepatic failure (Hepatotoxicity [6]; Liver): 1; HepSE_hepatic necrosis (Hepatotoxicity [7]; Liver): 0; HepSE_hepatitis (Hepatotoxicity [8]; Liver): 1; HepSE_hepatomegaly (Hepatotoxicity [9]; Liver): 0; HepSE_jaundice (Hepatotoxicity [10]; Liver): 1; HepSE_liver disease (Hepatotoxicity [11]; Liver): 0; HepSE_liver fatty (Hepatotoxicity [12]; Liver): 0; HepSE_liver function tests abnormal (Hepatotoxicity [13]; Liver): 1; HepSE_Combined Scores (Hepatotoxicity [14]; Liver): 5
